These results are taken from patent US20150190416A1, “FILAGGRIN PRODUCTION PROMOTER, THERAPEUTIC AGENT FOR DISEASES ASSOCIATED WITH REDUCTION IN PRODUCTION OF FILAGGRIN, AND METHOD FOR SCREENING FOR SAID THERAPEUTIC AGENT” (KYOTO UNIVERSITY, priority 2012, published 2015).

In assay [1] the test system is FLG mRNA. The experiment in a line: FLG mRNA in three-dimensional cultured skin, real-time PCR (Example 10). It counts as cell-based. The following applies: human skin three-dimensional model, 1 μM, recovered 7 days after start of culture. On the procedure: In this example, the expression-increasing effect of Compound 1 on FLG mRNA was examined by using three-dimensional cultured skin. FLG mRNA expression was measured by a real-time PCR method.
1) A commercially available human skin three-dimensional model (TEST SKIN™ LSE-013, TOYOBO CO., LTD.) was cultured by using TEST SKIN LSE ASSAY MEDIUM (TOYOBO CO., LTD.) according to the manufacturer's protocol.
2) After culture for 2 days, the following medicament A) or C) was dissolved in DMSO, and was added to the medium at 1 μM to treat the cells with the medicament. • A) Compound 1 (N-quinolylbenzamide derivative) • C) Comparative Compound 2 (scriptaid)
As a control example, a solvent only (vehicle) was added.
3) After further culture for 2 days (4 days after the start of culture), the medium was exchanged for the medium to which the medicament was added. 3 days after further culture (7 days after the start of culture), the three-dimensional cultured skin was recovered, frozen with liquid nitrogen, and then stored at −30° C.
4) Total RNA was extracted from each of the cells treated with the medicaments by using an RNA extraction reagent (RNeasy™, QIAGEN N.V.) according to the manufacturer's protocol. cDNA was prepared from the total RNA by using a reverse transcriptase reagent (Prime Script™, Takara) according to the manufacturer's protocol. […]

Assay [2] relates to FLG mRNA. The experiment in a line: FLG mRNA expression-increasing effect in NHEK cells, real-time PCR (Example 2). As to conditions: 10 nM, with or without calcium priming. It counts as cell-based, human. On the procedure:
In this example, the FLG mRNA expression-increasing effect of Compound 1 or Compound 2 was confirmed by using NHEK cells.
1) 5×10^4 cells/well of NHEK cells (Invitrogen) were plated on a 24-well plate, and then 500 μl of a culture medium containing a medium for proliferating normal human epidermal keratinocytes (HuMedia-KG2, KURABO INDUSTRIES LTD.) supplemented with hEGF (0.1 ng/ml), insulin (10 μg/ml), hydrocortisone (0.5 μg/ml), gentamycin (50 μg/ml), amphotericin B (50 ng/ml), and bovine brain pituitary extract (BPE) (0.4%, v/v) were added to the plate, and the cells were cultured under the conditions of 37° C. and 5% CO2. Next, after culture under the conditions of the following step 2) or 3), a sample was prepared. […]
4) An extraction reagent (TRIzol™, Invitrogen) was used, and according to the manufacturer's protocol, total RNA was extracted from each of cells treated with the medicament (Compound 1 or Compound 2) in the steps 2) and 3). […] Next, real-time PCR was conducted by using the following primers and SYBR™ Premix Ex Taq (Takara) with a CFX96 real-time PCR instrument (Bio-Rad Laboratories, Inc.) according to the manufacturer's protocol, and the amount of FLG mRNA was measured. […]

For the compound `O=C(CCCCCN1C(=O)c2cccc3cccc(c23)C1=O)NO` [Comparative Compound 2, 6-(1,3-Dioxo-1H,3H-benzo[de]isoquinolin-2-yl)hexanoic acid hydroxyamide, reference compound], in assay [1], the “FLG mRNA expression (GAPDH ratio)” value was “increased FLG mRNA expression”. On to `CCc1ccc(OCc2ccccc2C(=O)Nc2ccc3nc(C)cc(N)c3c2)cc1.Cl` [Compound 1, N-(4-Amino-2-methyl-6-quinolyl)-2-[(4-ethylphenoxy)methyl]benzamide hydrochloride], for which the “FLG mRNA expression (GAPDH ratio)” value in assay [2] is listed as “increases the FLG mRNA expression”; in assay [1], “increased FLG mRNA expression”. For the compound `CC[C@H](C)[C@H]1O[C@]2(CC[C@@H]1C)C[C@@H]1C[C@@H](C/C=C(\C)[C@@H](O[C@H]3C[C@H](OC)[C@@H](O[C@H]4C[C@H](OC)[C@@H](O)[C@H](C)O4)[C@H](C)O3)[C@@H](C)/C=C/C=C3\CO[C@@H]4[C@H](O)C(C)=C[C@@H](C(=O)O1)[C@]34O)O2` [Compound 2, Ivermectin, reference compound], the “FLG mRNA expression (GAPDH ratio)” value in assay [2] was “increases the FLG mRNA expression”.
